Assay results from patent US20200085805A1, “METHOD FOR TREATING CANCER RELATED TO ACTIVATION OF RAS GENE IN SUBJECT” (priority 2018, published 2020).

Tests used:
RAS mRNA = assay: Reduction of RAS mRNA in Drosophila pupae, measured by RT-PCR (2-ΔΔCt method); format: in vivo; conditions: 24 mM in culture medium, 5 days culture, 40 pupae, GAPDH internal reference, versus normal medium control
Procedure: The molecular weight of 1-methyl-4-phenyl-1,2,3,6-tetrahydropyridine is 173.25 g/mol. 1.7325 g of the compound was accurately weighed, dissolved in 10 mL of DMSO solution to prepare a 1 M mother liquid for later use.
The preparation of a normal culture medium: 0.53 g of agar and 1.6 g of yeast extraction powder was added to 50 mL H2O. The mixture obtained was heated until boiling. Then, 0.43 g of NaKT, 0.033 g of anhydrous CaCl2, 1.58 g of sucrose, 3.17 g of glucose, and 3.88 g of corn flour (pre-mixed thoroughly with cold water to prevent agglomeration) were added to the mixture, and was brought to boil before stopping heating. The final mixture was transferred in aliquots into a number of culture tubes with a diameter of 25 mm and a volume of 5-8 mL. The filled culture tubes were sterilized at high temperature (30 min, 116° C.), followed by cooling to around 50° C. […]
In the present invention, the content of RAS mRNA was measured by RT-PCR. […] After the amplification, the relative expression level of K-RAS in Drosophila was determined by the 2-ΔΔCt method.
After culturing in the normal culture medium (as a control group) and a culture medium doped by 24 mM of 1-methyl-4-phenyl-1,2,3,6-tetrahydropyridine (as a test group) for 5 days, 40 pupae were taken from each of the culture tubes used for the test. […] The relative amount of RAS mRNA was determined by the above method.

[1] = tested on: L185+L186 Drosophila tumor model; assay: Inhibition of tumors in GFP-scrib-/- Drosophila tumor model (GFP fluorescence, live imaging); format: in vivo, Drosophila melanogaster; conditions: oral administration of 24 mM in doped culture medium, 5 days, 80 pupae; without compound 2.37×10^9 μW/cm^2
Text: A green fluorescent protein (GFP)-tagged FLP/FRT recombinant system and scrib/TM6B balanced Drosophila melanogaster strain were used for hybridization to obtain a GFP-scrib−/− chimeric tumorigenesis model (L185+L186), wherein the GFP expression is in linkage with tumorigenesis. The preparation of a normal culture medium and a doped culture medium was the same as in embodiment 1. After culturing in the normal culture medium and the doped culture medium for 5 days, 80 pupae were taken from the culture tubes used for the test and washed twice with PBS (phosphate buffered saline solution). The pupae were neatly arranged on slides and were then transferred to an ice box to freeze for 2 hours. The pupae were observed under an IVIS Lumina X5 live imaging system (excitation light wavelength 450-490 nm, the same hereafter), images were taken, and the expression of the green fluorescent protein was evaluated.

For `CN1CC=C(c2ccccc2)CC1` [1-methyl-4-phenyl-1,2,3,6-tetrahydropyridine], the “reduction of RAS mRNA level” value (RAS mRNA) was 3.5 folds and the “absolute value of the fluorescence of the Drosophila tumor model” value [1] was 3.5×10^8 μW/cm^2.
